Reference: US20260097047A1, “Small molecule inhibitors of the ribosome biogenesis factor NVL2” (Board of Regents, The University of Texas System, priority 2023, published 2026)
pIC50: −log10 of the molar value.

Test system: HCT116 cells
Test: Cell viability assay (CellTiter-Glo, 72 hours) in HCT116 human colorectal cancer cells
Type: cell-based
Settings: Homo sapiens, HCT-116; Table 5; HCT116, 72 hours; read-out: Activity
How it was run: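 Ten-point IC50 came from an asymmetric five-parameter fit of luminescence corrected to vehicle wells. ATP content was measured by CellTiter-Glo 72 h after dosing at 37 °C. Cells were seeded at 2,000/well the day before, with 0.5% DMSO in all wells.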

Row | pIC50 | SMILES
1 | > 6.30 | CC#CCN1C(=O)c2ccccc2Sc2cc(Nc3ccc(C)nn3)ccc21 [10-(But-2-yn-1-yl)-7-((6-methylpyridazin-3-yl)amino)dibenzo[b,f][1,4]thiazepin-11 (10H)-one]
2 | > 6.30 | CC#CCN1C(=O)c2ccccc2Sc2cc(Nc3nc(C)ccc3F)ccc21 [10-(But-2-yn-1-yl)-7-((3-fluoro-6-methylpyridin-2-yl)amino)dibenzo[b,f][1,4]thiazepin-11 (10H)-one]
3 | > 6.30 | CC#CCN1C(=O)c2ccc(F)cc2Sc2cc(Nc3ncccc3F)ccc21 [10-(But-2-yn-1-yl)-3-fluoro-7-((3-fluoropyridin-2-yl)amino)dibenzo[b,f][1,4]thiazepin-11 (10H)-one]
4 | > 6.30 | CC#CCN1C(=O)c2ccc(C#N)cc2Sc2cc(Nc3nc(C)cnc3C)ccc21 [10-(But-2-yn-1-yl)-7-((3,6-dimethylpyrazin-2-yl)amino)-11-oxo-10,11-dihydrodibenzo[b,f][1,4]thiazepine-3-carbonitrile]
5 | 6.00 to 6.30 | CCC/C=C/CN1C(=O)c2ccccc2Sc2cc(Nc3nccnc3OC)ccc21 [(E)-10-(Hex-2-en-1-yl)-7-((3-methoxypyrazin-2-yl)amino)dibenzo[b,f][1,4]thiazepin-11 (10H)-one]
6 | > 6.30 | CC#CCN1C(=O)c2ccccc2Sc2cc(Nc3ccncc3C#N)ccc21 [4-((10-(But-2-yn-1-yl)-11-oxo-10,11-dihydrodibenzo[b,f][1,4]thiazepin-7-yl)amino) nicotinonitrile]
7 | > 6.30 | CC#CCN1C(=O)c2ccccc2Sc2cc(Nc3nnc(C#N)cc3C)ccc21 [6-((10-(But-2-yn-1-yl)-11-oxo-10,11-dihydrodibenzo[b,f][1,4]thiazepin-7-yl)amino)-5-methylpyridazine-3-carbonitrile]
8 | > 6.30 | CC#CCN1C(=O)c2ccc(F)cc2Sc2cc(Nc3ncccc3C#N)ccc21 [2-((10-(But-2-yn-1-yl)-3-fluoro-11-oxo-10,11-dihydrodibenzo[b,f][1,4]thiazepin-7-yl)amino) nicotinonitrile]

Same assay, conditions: Homo sapiens, HCT-116; Table 6; HCT116, 72 hours; read-out: Activity

Row | pIC50 | SMILES
9 | > 6.30 | CC#CCN1C(=O)c2ccccc2Sc2cc(NC3COCC3OC)ccc21 (stereo not shown) [10-(But-2-yn-1-yl)-7-((4-methoxytetrahydrofuran-3-yl)amino)dibenzo[b,f][1,4]thiazepin-11 (10H)-one]
10 | > 6.30 | CC#CCN1C(=O)c2ccccc2Sc2cc(NC3CCCOC3)ccc21 (stereo not shown) [10-(But-2-yn-1-yl)-7-((tetrahydro-2H-pyran-3-yl)amino)dibenzo[b,f][1,4]thiazepin-11 (10H)-one]

Same assay, conditions: Homo sapiens, HCT-116; read-out: IC50s (cellular activity of MM017 derivatives)

Row | pIC50 | SMILES
11 | 5.68 | COCCN1C(=O)c2ccccc2Sc2cc(NC(=O)c3ccc(OC(F)(F)F)cc3)ccc21 [compound 4]

Same assay, conditions: Table 1; HCT116, 72 hours; read-out: Activity

Row | pIC50 | SMILES
12 | > 6.30 | CC#CCN1C(=O)c2ccccc2Sc2cc(NC(=O)N3CCCCC3)ccc21

Same assay, conditions: Table 3; HCT116, 72 hours; read-out: Activity

Row | pIC50 | SMILES
13 | > 6.30 | CC#CCN1C(=O)c2ccccc2Sc2cc(NC(=O)N[C@H]3C[C@H](OC)C3)ccc21 [Table 3: —CH2CCMe; trans-3-MeOcBu; CH/CH]
14 | > 6.30 | CC#CCN1C(=O)c2ccccc2Sc2cc(NC(=O)Nc3cccc(OCF)c3)ccc21 [Table 3: —CH2CCMe; 3-FH2COPh; CH/CH]
15 | > 6.30 | CC#CCN1C(=O)c2ccccc2Sc2cc(NC(=O)N[C@H]3C[C@@H](O)C3)cnc21 [Table 3: —CH2CCMe; cis-3-OH-cBu; CH/N]

Same assay, conditions: Table 4; HCT116, 72 hours; read-out: Activity

Row | pIC50 | SMILES
16 | > 6.30 | CC#CCN1C(=O)c2ccccc2Sc2cc(NC(=S)N[C@H]3C[C@@H](O)C3)ccc21 [Table 4: —CH2CCMe; cis-3-OH-cBu; CH]
17 | > 6.30 | CC#CCN1C(=O)c2ccccc2Sc2cc(NC(=S)Nc3cccc(OC)c3)cnc21 [Table 4: —CH2CCMe; 3-MeOPh; N]
18 | > 6.30 | CC#CCN1C(=O)c2ccccc2Sc2cc(NC(=S)NC3COC3)cnc21 [Table 4: —CH2CCMe; oxetan-3-yl; N]

Same assay, conditions: Table 5; HCT116, 72 hours; read-out: Activity

Row | SMILES | pIC50
19 | Cc1ccnnc1Nc1ccc2c(c1)Sc1ccccc1C(=O)N2CC#CCl | > 6.30
20 | CCCC=CCN1C(=O)c2ccccc2Sc2cc(Nc3ncc(C)cc3C)cnc21 | > 6.30

Next, values leading:

Row | pIC50 | SMILES
21 | > 6.30 | CC#CCN1C(=O)c2ccccc2Sc2cc(Nc3ccc(C)nn3)cnc21
22 | > 6.30 | CC#CCN1C(=O)c2ccccc2Sc2cc(Nc3nnccc3C#N)cnc21
23 | > 6.30 | Cc1cnc(Nc2cnc3c(c2)Sc2ccccc2C(=O)N3CC#CCl)c(C)c1
24 | > 6.30 | CC#CCN1C(=O)c2ccccc2Sc2cc(Nc3nccc(C#N)c3F)cnc21

Same assay, conditions: Table 6; HCT116, 72 hours; read-out: Activity

Row | pIC50 | SMILES
25 | > 6.30 | CC#CCN1C(=O)c2ccccc2Cc2cc(NC3CC(CO)C3)ccc21 (stereo not shown)
26 | > 6.30 | CC#CCN1C(=O)c2ccccc2Sc2cc(NC3CC(CO)C3)cnc21 (stereo not shown) [Table 6: —CH2CCMe; 3-HOCH2-cBu; CH/N; S]
27 | > 6.30 | CC#CCN1C(=O)c2ccccc2Cc2cc(NC3CC(COC)C3)ccc21 (stereo not shown)

Same assay, conditions: Table 7; cell viability assay, CellTiter-Glo, 72 hours; scaffold drawing 42 with R^2, R^3, X/Y, Z; read-out: Activity

Row | pIC50 | SMILES
28 | > 6.30 | C#CCOCCN1C(=O)c2ccccc2Cc2cc(NC(=O)c3ccc(OC)cc3)ccc21 [—(CH2)2OCH2CCH; 4-MeOPh; CH/CH; CH2]
29 | 5.30 to 6.00 | COCCN1C(=O)c2ccccc2Sc2cc(NC(=O)c3ccc(OC(F)(F)F)cc3)ccc21 [—(CH2)2OMe; 4-CF3OPh; CH/CH; S]
30 | 6.00 to 6.30 | COCCN1C(=O)c2ccccc2Sc2cc(NC(=O)c3cc(F)c(OC)c(F)c3)ccc21 [—(CH2)2OMe; 3,5-F2,4-MeOPh; CH/CH; S]
31 | > 6.30 | COCCN1C(=O)c2ccc(F)cc2Sc2cc(NC(=O)c3ccoc3)ccc21 [—(CH2)2OMe; furan-3-yl; CF/CH; S]
32 | 5.30 to 6.00 | C#CCOCCN1C(=O)c2ccccc2Sc2cc(NC(=O)c3ccc(OC)c(F)c3)ccc21 [—(CH2)2OCH2CCH; 3-F,4-MeOPh; CH/CH; S]
33 | > 6.30 | C#CCOCCN1C(=O)c2ccccc2Sc2cc(NC(=O)c3ccoc3)ccc21 [—(CH2)2OCH2CCH; furan-3-yl; CH/CH; S]
34 | 5.30 to 6.00 | COCCN1C(=O)c2ccccc2Sc2cc(NC(=O)c3cc(C)oc3C)ccc21 [—(CH2)2OMe; 2,5-Me2-furan-3-yl; CH/CH; S]

Same assay, conditions: Table 8; analogs of scaffold drawing 43 defined by R^2, R^3, X/Y, W; read-out: Activity (IC50 class, cell viability assay)

Row | SMILES | pIC50
35 | CC#CCN1C(=O)c2ccccc2Sc2cc(NC(=O)c3cccc(CCC#N)c3)ccc21 [—CH2CCMe; 3-(2′-CNEt)Ph; CH/CH; CH] | > 6.30
36 | CC#CCN1C(=O)c2ccc(Cl)cc2Sc2cc(NC(=O)C(C)CCOC)ccc21 (stereo not shown) [—CH2CCMe; MeO(CH2)2CHMe-; CCI/CH; CH] | > 6.30
37 | O=C(Nc1cnc2c(c1)Sc1ccccc1C(=O)N2CC#CC1CC1)C1CCOC1 (stereo not shown) | > 6.30
38 | CC#CCN1C(=O)c2ccc(Cl)cc2Sc2cc(NC(=O)OCCOC)ccc21 [—CH2CCMe; O(CH2)2OMe; CCl/CH; CH] | > 6.30

More lines, now with the values ahead:

Row | pIC50 | SMILES
39 | > 6.30 | CC#CCN1C(=O)c2ccc(Cl)cc2Sc2cc(NC(=O)C=CCOC)cnc21 [—CH2CCMe; CH—═CHCH2OMe; CCl/CH; N]
40 | > 6.30 | CC#CCN1C(=O)c2cc(F)ccc2Sc2cc(NC(=O)C3CC3C(=O)OC)ccc21 (racemic) [—CH2CCMe; trans-2-MeO2C-cPr; CH/CF; CH]
41 | > 6.30 | COC12CC(C(=O)Nc3cnc4c(c3)Sc3ccc(F)cc3C(=O)N4CC#CC3CC3)(C1)C2
42 | > 6.30 | CC#CCN1C(=O)c2ccc(Cl)cc2Sc2cc(NC(=O)[C@H]3C[C@H](O)C3)cnc21 [—CH2CCMe; trans-3-OH-cBu; CCl/CH; N]
43 | > 6.30 | CC#CCN1C(=O)c2ccccc2Sc2cc(NC(=O)C34CC(F)(C3)C4)ccc21
44 | > 6.30 | CC#CCN1C(=O)c2cc(F)ccc2Sc2cc(NC(=O)C34CC(O)(C3)C4)ccc21
45 | > 6.30 | CC#CCN1C(=O)c2ccc(Cl)cc2Sc2cc(NC(=O)NCCOC)cnc21 [—CH2CCMe; NH(CH2)2OMe; CCl/CH; N]
46 | > 6.30 | O=C(C=CCO)Nc1cnc2c(c1)Sc1ccccc1C(=O)N2CC#CC(F)(F)F [—CH2CCCF3; CH—═CHCH2OH; CH/CH; N]
47 | > 6.30 | O=C(Nc1cnc2c(c1)Sc1ccccc1C(=O)N2CC#CC(F)(F)F)C1CC2(CC(=NO)C2)C1 (stereo not shown)
48 | > 6.30 | CC#CCN1C(=O)c2cc(F)ccc2Sc2cc(NC(=O)CCCOC)ccc21 [—CH2CCMe; (CH2)3OMe; CH/CF; CH]
49 | > 6.30 | CC#CCN1C(=O)c2ccccc2Sc2cc(NC(=O)C3CC4(CCC4)C3)ccc21
50 | > 6.30 | CC#CCN1C(=O)c2ccccc2Sc2cc(NC(=O)C3CC4(CC(=NO)C4)C3)ccc21 (stereo not shown)
51 | > 6.30 | CON=C1CC2(C1)CC(C(=O)Nc1ccc3c(c1)Sc1ccc(F)cc1C(=O)N3CC#CCl)C2 (stereo not shown)
52 | > 6.30 | CC#CCN1C(=O)c2cc(F)ccc2Sc2cc(NC(=O)[C@H]3C[C@H](O)C3)ccc21 [—CH2CCMe; trans-3-OH-cBu; CH/CF; CH]
53 | > 6.30 | O=C(CC1COC1)Nc1ccc2c(c1)Sc1ccc(F)cc1C(=O)N2CC#CC1CC1 [—CH2CC^cPr; (oxetan-3-yl)CH2; CH/CF; CH]

Same assay, conditions: Table 9; HCT116, 72 hours; read-out: Activity

Row | pIC50 | SMILES
54 | > 6.30 | CC#CCN1C(=O)c2ccccc2C(C)c2cc(NC(=O)[C@H]3C[C@H](O)C3)ccc21 (stereo partly drawn) [Table 9: —CH2CCMe; trans-3-OH-cBu; CHMe]
55 | > 6.30 | CC#CCN1C(=O)c2ccccc2C(C)(O)c2cc(NC(=O)[C@H]3C[C@@H](OC)C3)ccc21 (stereo partly drawn) [Table 9: —CH2CCMe; cis-3-MeOcBu; CMeOH]
56 | > 6.30 | CC1(O)c2ccccc2C(=O)N(CC#CC2CC2)c2ccc(NC(=O)[C@@H]3C[C@H]3CO)cc21 (relative stereo)
57 | > 6.30 | CC#CCN1C(=O)c2ccccc2C(C#N)c2cc(NC(=O)[C@H]3C[C@H](OC)C3)ccc21 (stereo partly drawn) [Table 9: —CH2CCMe; trans-3-MeOcBu; CHCN]
58 | > 6.30 | CC1c2ccccc2C(=O)N(CC#CC2CC2)c2ccc(NC(=O)C3CC4(CC(=O)C4)C3)cc21 (stereo not shown)
59 | > 6.30 | CC#CCN1C(=O)c2ccccc2C(C)c2cc(NC(=O)C3CC4(CC(=NO)C4)C3)ccc21 (stereo not shown)
60 | > 6.30 | CC#CCN1C(=O)c2ccccc2C(C)(O)c2cc(NC(=O)C3CC4(CC(=NO)C4)C3)ccc21 (stereo not shown)
61 | > 6.30 | C#CCN1C(=O)c2ccccc2C(C#N)c2cc(NC(=O)[C@H]3C[C@@H](OC)C3)ccc21 (stereo partly drawn) [Table 9: —CH2CCH; cis-3-MeOcBu; CHCN]
